Results as given in patent US11135290B2, “Fucosyllactose as breast milk identical non-digestible oligosaccharide with new functional benefit” (N.V. Nutricia, priority 2009, dated 2021).
Marks after values point to notes of the source that are not given here.

Columns and labels:
Assay type in all cases: in vivo, C57BL/6 mice
YAC-1 target cells = experiment: NK cell cytotoxicity in spleen cell suspensions, 51Cr release assay; details: mouse splenocytes, dietary supplementation
From the text: (§1) 6-8 Weeks old female C57BL/6 mice (Charles River) received semi-purified AIN-93G-based diets (Research Diet Service, Wijk bij Duurstede, the Netherlands), comprising
1) 2 wt % beta-galacto-oligosaccharide (GOS; source Vivinal GOS, Borculo Domo), fructo-oligosaccharide (FOS; source RaftilineHP, Orafti) and galacturonic acid oligosaccharide (Source AOS) in a 9:1:1.1 ratio. AOS are produced from pectin (Stidzucker AG, Mannheim, Germany), with a DP of 1-20. It consists of approximately 75% galacturonic acid oligomers, based on total weight;
2) 1 wt % lactoneotetraose (LNnT),
3) 1 wt % 3′-sialyl lactose (3′-SL), or
4) 1 wt % 2′-fucosyllactose (2′-FL).
(§2) All groups were compared to the unsupplemented control diet. Dietary supplementation started 14 days before the first vaccination and lasted until the end of the experiment, 31 days after the first vaccination.
Vaccination experiments were performed using Influvac (Solvay Pharmaceuticals, Weesp, the Netherlands) from season 2005/2006. […] The percentage of specific ^51Cr release was calculated as the percentage of specific lysis=(experimental release−spontaneous release)/(total detergent release−spontaneous release)×100. […]
(§3) Statistical analysis was performed using GraphPadPrism software. Statistical differences between test and control groups were analysed by ANOVA and post hoc Dunnett's test if multiple groups were compared to a single (control) group. […]

[1] = tested on: regulatory T cells (Treg); experiment: Percentage of regulatory T cells (Treg) by flow cytometry; details: dietary supplementation, vaccinated mice
Experimental: All groups were compared to the unsupplemented control diet. Dietary supplementation started 14 days before the first vaccination and lasted until the end of the experiment, 31 days after the first vaccination. […]
The percentage of regulatory T cells (Treg) was determined by flow cytometry (FACSCalibur) using allophycocyanin (APC-)labelled anti-mouse CD3 mAb, Pe-Cy5-labeled anti-mouse CD4 mAb and phycoerythrin (PE)-labelled anti-mouse CD25 mAb in combination with intracellular staining of fluorescein-isotiocyanate (FITC)-labelled Foxp3 mAb, according to the instructions offered by the manufactures (eBiosciences, San Diego, Calif.).

DTH response = DTH response after Influvac vaccination; details: dietary supplementation, vaccinated mice; TH1-dependent parameter
Experimental: as §1, §2
Vaccination experiments were performed using Influvac (Solvay Pharmaceuticals, Weesp, the Netherlands) from season 2005/2006. The mice received a primary vaccination and a booster vaccination, consisting of a subcutaneous (sc) injection of a 1:1 mix of vaccine and adjuvant in a total volume of 100 μl. The booster vaccination was given at 21 days after the primary vaccination. The experiments ended 10 days after booster vaccination. Blood samples were taken at the end of the experiment. […] The percentage of specific ^51Cr release was calculated as the percentage of specific lysis=(experimental release−spontaneous release)/(total detergent release−spontaneous release)×100. […]
as §3

| Molecule | NK cell activity, % lysis At E:T ratio 1:50 (YAC-1 target cells) [% lysis] | Treg percentage (s.e.m.) [1] | DTH response compared with control-fed animals (DTH response) |
| --- | --- | --- | --- |
| lactoneotetraose [LNnT] | 2.14 | 3.2 (0.2) percentage | significant increase |
| CC(=O)N[C@H]1[C@H]([C@H](O)[C@H](O)CO)O[C@@](O[C@H]2[C@@H](O)[C@@H](CO)O[C@@H](O[C@H]3[C@H](O)[C@@H](O)C(O)O[C@@H]3CO)[C@@H]2O)(C(=O)O)C[C@@H]1O (stereo partly drawn) [3′-SL, 3′-sialyl lactose] | 1.93 | 2.8 (0.2)* percentage | significant increase |
